Here are results for 4 compounds from ChEMBL document CHEMBL1150659, “Pachyclavulariaenones D-G, new diterpenoids from the soft coral Pachyclavularia violacea” (2002).

The test system of one assay is HT-29. The experiment in a line: Cytotoxicity against human HT-29 cells. In kind it is functional.
The next assay deals with P388. The experiment in a line: Cytotoxicity against mouse P388 cells. In kind it is functional, cell-based.
A further assay has as its system A549. The experiment in a line: Cytotoxicity against human A549 cells. It is filed as functional.
The subject of the next assay is P-388 (Mus musculus). The experiment in a line: Cytotoxicity against mouse P-388 cells. To be noted: read-out: ED50 (the source's name).

Converted amounts (≈) assume the structure as drawn.

Consider `CC1=CC(=O)[C@H]2[C@H]3[C@@H]1[C@@H]1C/C(C)=C\C[C@@H](O)[C@](C)(OC[C@@H]2C)[C@H]3O1`, for which the Activity entry with HT-29, in the assay on P388 and in the assay on A549 was “Not toxic” throughout.

Turning to `CC(=O)O[C@@H]1C[C@@H](O)[C@]2(C)OC[C@H](C)[C@H]3C(=O)C=C(C)[C@@H]4[C@H]3[C@@H]2O[C@H]4C[C@@]1(C)O`, the Activity entry with HT-29 and in the assay on A549 was “Not toxic” throughout.

Turning to `CC1=CC(=O)[C@H]2[C@H]3[C@@H]1[C@@H]1C[C@@](C)(O)[C@H](O)C[C@@H](O)[C@](C)(OC[C@@H]2C)[C@H]3O1` [PACHYCLAVULARIAENONE G], the EC50 amounted to 3.2 µg/mL (≈ 8.73 µM) in the assay on HT-29 (read-out: ED50 (the source's name)) and 0.2 µg/mL (≈ 0.546 µM) with P-388 (Mus musculus).

As for `CC(=O)O[C@@H]1C[C@@H](OC(C)=O)[C@](C)(O)C[C@@H]2O[C@H]3[C@@H]4[C@H]2C(C)=CC(=O)[C@@H]4[C@@H](C)CO[C@@]13C`, the Activity result in the assay with HT-29 and in the assay with A549 was “Not toxic” throughout.
